Assay results taken from US20150087627A1, “COMBINATION OF KINASE INHIBITORS AND USES THEREOF” (Intellikine LLC, priority 2011, published 2015).
Like-named read-outs stand apart in the source and are kept apart here.

Experiments:
Type in all cases: biochemical
PI3K β (p110β/p85α) = molecular target: T1, PI3K β (p110β/p85α) (Homo sapiens, UniProt P42338); experiment: PI 3-Kinase (human) HTRF assay, PI3K β; conditions: read-out: PI3K β IC50
T1 construct: purchased Upstate / Millipore Corporation

PI3K γ (p110γ) = molecular target: T2, PI3K γ (p110γ) (Homo sapiens, UniProt P48736); experiment: PI 3-Kinase (human) HTRF assay, PI3K γ; conditions: read-out: PI3K γ IC50
T2 construct: purchased Upstate / Millipore Corporation
T2 sequence (P48736 whole entry): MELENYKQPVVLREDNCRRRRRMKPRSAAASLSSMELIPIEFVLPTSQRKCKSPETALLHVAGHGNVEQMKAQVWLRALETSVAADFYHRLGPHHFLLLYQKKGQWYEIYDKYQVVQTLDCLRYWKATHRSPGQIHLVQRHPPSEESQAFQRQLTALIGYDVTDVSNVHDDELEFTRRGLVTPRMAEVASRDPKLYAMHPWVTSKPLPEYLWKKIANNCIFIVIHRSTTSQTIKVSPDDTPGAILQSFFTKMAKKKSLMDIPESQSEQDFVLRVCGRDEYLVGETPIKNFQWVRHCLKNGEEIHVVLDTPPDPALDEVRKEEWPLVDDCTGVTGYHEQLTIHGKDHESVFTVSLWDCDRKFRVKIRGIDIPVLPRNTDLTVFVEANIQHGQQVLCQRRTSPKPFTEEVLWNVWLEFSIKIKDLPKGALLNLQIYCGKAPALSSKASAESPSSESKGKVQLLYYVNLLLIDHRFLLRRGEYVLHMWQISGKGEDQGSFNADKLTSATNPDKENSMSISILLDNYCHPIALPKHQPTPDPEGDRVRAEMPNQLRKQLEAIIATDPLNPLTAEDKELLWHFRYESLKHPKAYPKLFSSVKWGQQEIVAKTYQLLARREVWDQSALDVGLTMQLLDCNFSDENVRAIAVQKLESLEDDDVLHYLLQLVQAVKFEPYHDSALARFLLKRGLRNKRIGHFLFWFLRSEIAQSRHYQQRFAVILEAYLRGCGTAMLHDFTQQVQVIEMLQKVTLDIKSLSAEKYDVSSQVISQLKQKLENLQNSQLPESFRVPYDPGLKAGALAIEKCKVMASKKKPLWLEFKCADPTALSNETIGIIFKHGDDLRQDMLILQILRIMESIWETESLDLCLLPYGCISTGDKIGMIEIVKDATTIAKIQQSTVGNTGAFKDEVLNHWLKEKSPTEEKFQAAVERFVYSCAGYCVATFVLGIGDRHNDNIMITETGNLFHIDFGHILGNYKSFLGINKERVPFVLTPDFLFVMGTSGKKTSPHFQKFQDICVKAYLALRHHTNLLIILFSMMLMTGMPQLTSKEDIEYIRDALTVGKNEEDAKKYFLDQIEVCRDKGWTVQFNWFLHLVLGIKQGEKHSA

PI3K α (p110α/p85α) = molecular target: T3, PI3K α (p110α/p85α) (Homo sapiens, UniProt P42336); experiment: PI 3-Kinase (human) HTRF assay, PI3K α; conditions: read-out: PI3K α IC50
T3 construct: purchased Upstate / Millipore Corporation
T3 sequence (P42336 whole entry): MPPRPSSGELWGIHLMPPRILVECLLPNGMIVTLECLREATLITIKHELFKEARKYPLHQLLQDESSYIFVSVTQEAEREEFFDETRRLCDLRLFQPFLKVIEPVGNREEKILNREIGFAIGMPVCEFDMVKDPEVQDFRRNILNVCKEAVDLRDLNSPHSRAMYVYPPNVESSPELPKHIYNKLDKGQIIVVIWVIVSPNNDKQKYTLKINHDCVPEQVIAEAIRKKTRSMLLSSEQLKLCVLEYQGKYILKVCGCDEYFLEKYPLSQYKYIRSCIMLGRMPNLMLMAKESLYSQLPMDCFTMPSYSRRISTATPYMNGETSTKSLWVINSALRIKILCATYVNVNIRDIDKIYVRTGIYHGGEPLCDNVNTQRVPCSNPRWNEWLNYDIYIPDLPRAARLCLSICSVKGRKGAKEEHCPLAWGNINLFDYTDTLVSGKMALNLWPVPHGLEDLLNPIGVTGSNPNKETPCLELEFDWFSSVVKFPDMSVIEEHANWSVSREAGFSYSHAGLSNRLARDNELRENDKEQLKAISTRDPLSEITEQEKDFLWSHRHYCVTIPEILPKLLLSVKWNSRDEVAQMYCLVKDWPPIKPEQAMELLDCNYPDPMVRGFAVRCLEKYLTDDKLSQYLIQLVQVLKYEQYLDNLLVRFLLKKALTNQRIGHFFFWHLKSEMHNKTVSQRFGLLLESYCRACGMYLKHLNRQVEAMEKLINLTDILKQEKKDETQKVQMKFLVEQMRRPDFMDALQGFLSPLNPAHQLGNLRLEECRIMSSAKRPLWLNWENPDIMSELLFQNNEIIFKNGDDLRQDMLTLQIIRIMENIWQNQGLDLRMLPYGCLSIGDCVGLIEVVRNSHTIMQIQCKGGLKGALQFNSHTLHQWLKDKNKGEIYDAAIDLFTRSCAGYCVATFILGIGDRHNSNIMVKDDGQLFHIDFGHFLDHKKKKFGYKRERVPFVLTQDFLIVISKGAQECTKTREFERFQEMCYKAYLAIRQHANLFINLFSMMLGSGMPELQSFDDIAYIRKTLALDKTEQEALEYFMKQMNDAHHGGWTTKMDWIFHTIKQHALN
T3 sequence (P27986 whole entry partner): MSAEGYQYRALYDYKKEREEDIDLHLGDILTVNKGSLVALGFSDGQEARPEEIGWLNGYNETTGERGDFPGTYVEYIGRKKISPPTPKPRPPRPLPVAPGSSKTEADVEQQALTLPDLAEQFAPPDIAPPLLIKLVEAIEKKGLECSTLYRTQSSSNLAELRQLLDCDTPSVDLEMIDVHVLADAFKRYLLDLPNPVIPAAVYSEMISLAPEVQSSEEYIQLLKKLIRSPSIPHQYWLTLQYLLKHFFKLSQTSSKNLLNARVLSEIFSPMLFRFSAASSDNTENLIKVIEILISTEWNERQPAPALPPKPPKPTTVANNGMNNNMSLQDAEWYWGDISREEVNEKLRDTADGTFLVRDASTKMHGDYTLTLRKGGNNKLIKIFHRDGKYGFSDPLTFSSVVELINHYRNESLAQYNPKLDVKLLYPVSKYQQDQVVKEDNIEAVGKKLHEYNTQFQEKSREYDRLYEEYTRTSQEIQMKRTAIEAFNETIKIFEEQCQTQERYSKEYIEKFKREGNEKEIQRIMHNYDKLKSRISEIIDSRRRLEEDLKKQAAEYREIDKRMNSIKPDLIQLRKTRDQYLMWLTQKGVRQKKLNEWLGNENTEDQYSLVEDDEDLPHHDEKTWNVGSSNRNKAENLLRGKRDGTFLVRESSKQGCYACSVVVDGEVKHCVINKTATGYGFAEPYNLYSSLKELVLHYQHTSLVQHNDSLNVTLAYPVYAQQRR

PI3K δ = molecular target: T4, PI3K δ (Homo sapiens, UniProt O00329); experiment: PI 3-Kinase (human) HTRF assay, PI3K δ; conditions: read-out: PI3K δ IC50
T4 construct: purchased Upstate / Millipore Corporation
T4 sequence (O00329 whole entry): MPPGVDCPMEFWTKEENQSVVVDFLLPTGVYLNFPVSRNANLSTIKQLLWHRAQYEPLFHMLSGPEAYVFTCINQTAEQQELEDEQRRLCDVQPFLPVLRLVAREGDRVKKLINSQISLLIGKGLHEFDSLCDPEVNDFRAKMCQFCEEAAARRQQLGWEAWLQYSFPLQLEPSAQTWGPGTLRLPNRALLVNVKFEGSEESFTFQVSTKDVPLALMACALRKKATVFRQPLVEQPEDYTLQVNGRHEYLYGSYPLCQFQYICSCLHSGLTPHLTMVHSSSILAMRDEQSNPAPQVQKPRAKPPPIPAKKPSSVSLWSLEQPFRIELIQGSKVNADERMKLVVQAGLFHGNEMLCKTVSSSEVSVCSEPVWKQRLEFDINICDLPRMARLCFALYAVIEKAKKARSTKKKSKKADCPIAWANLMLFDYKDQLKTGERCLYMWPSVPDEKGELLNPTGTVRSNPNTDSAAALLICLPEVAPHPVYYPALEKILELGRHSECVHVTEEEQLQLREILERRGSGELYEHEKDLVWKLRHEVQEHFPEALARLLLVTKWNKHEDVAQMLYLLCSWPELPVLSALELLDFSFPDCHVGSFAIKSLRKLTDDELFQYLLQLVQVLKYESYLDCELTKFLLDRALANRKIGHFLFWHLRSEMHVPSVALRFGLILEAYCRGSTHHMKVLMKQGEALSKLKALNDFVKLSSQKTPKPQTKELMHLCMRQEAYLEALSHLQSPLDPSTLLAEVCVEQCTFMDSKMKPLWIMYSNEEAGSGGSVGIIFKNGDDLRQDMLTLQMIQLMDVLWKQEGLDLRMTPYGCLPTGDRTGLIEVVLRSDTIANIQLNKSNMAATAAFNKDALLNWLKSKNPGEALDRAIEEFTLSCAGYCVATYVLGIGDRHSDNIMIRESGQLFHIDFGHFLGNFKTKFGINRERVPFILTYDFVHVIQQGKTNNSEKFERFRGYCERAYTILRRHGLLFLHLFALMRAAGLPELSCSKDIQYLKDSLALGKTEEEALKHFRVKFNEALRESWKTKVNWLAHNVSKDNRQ
T4 sequence (P27986 whole entry partner): as the sequence (P27986 whole entry partner) above

T1 sequence (P42338 whole entry): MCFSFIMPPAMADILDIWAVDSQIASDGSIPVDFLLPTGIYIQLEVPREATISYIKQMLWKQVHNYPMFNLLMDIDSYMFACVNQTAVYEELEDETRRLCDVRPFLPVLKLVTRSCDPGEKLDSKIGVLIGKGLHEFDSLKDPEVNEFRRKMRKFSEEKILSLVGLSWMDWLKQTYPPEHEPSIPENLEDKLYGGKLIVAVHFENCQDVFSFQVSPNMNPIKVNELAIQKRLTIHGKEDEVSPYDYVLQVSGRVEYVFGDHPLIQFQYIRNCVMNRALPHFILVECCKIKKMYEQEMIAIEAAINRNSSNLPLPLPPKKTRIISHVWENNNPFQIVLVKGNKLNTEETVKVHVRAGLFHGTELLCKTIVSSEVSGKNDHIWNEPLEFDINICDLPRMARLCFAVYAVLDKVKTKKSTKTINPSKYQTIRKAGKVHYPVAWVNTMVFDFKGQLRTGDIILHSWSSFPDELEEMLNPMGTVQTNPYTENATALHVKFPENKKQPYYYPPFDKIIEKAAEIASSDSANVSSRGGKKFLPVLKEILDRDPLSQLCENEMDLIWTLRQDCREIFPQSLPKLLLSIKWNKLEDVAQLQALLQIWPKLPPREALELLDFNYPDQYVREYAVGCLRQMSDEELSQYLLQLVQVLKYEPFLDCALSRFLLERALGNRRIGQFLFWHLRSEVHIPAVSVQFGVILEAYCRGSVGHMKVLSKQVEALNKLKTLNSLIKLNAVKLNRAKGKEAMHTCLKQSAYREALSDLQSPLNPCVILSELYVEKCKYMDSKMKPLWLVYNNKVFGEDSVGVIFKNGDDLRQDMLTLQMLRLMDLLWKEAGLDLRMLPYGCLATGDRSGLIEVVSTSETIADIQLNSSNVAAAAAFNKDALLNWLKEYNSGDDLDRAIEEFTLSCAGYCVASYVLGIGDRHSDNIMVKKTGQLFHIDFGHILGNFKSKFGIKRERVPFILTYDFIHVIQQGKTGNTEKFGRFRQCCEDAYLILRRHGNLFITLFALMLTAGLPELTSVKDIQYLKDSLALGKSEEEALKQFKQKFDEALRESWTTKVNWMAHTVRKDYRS
T1 sequence (P27986 whole entry partner): as the sequence (P27986 whole entry partner) above

Structure (SMILES) | IC50 (PI3K β (p110β/p85α)) [µM] | IC50 (PI3K γ (p110γ)) [µM] | IC50 (PI3K δ) [µM] | IC50 (PI3K β (p110β/p85α); Table 4 (PI3K α inhibitors)) [µM] | IC50 (PI3K γ (p110γ); Table 4 (PI3K α inhibitors)) [µM] | IC50 (PI3K α (p110α/p85α); Table 4 (PI3K α inhibitors)) [µM] | IC50 (PI3K δ; Table 4 (PI3K α inhibitors)) [µM] | IC50 (PI3K α (p110α/p85α)) [µM]
Nc1nsc2ccc(-c3ccc4nccc(-c5ccncc5)c4c3)cc12 [Compound 12] | > 10 | > 10 | > 10 |  |  |  |  | > 10
Nc1nc2cc(-c3cc4nccc(-c5ccncc5)c4s3)ccc2o1 [Compound 14] | > 10 | < 10 | > 10 |  |  |  |  | < 10
Nc1nc2cccc(-c3ccc4nccc(-c5ccncc5)c4c3)c2s1 [Compound 17] | < 1 | < 0.1 | < 1 |  |  |  |  | < 0.1
Nc1noc2ccc(-c3ccc4nccc(-c5ccncc5)c4c3)cc12 [Compound 18] | > 10 | < 10 | > 10 |  |  |  |  | < 10
CC(=O)Nc1cn2cc(-c3ccc4nccc(-c5ccncc5)c4c3)ccc2n1 [Compound 19] | > 10 | > 10 | > 10 |  |  |  |  | > 10
CN1CCN(c2ccnc3ccc(-c4ccc5oc(N)nc5c4)cc23)CC1 [Compound 21] | < 10 | < 10 | < 10 |  |  |  |  | < 1
Nc1nc2cc(-c3ccc4ncnc(NC5CCOCC5)c4c3)ccc2o1 [Compound 24] | < 1 | < 0.1 | < 0.1 |  |  |  |  | < 0.1
Nc1nc2cc(-c3c[nH]c4nccc(-c5ccncc5)c34)ccc2o1 [Compound 25] | > 10 | < 10 | > 10 |  |  |  |  | < 10
CN1CCN(c2cc(-c3ccnc4ccc(-c5ccc6oc(N)nc6c5)cc34)ccn2)CC1 [Compound 30] |  | < 0.1 | < 0.1 |  |  |  |  | < 0.1
Nc1nc2cc(-c3ccc4nccc(-c5cccnc5)c4c3)ccc2o1 [Compound 31] |  | < 0.1 | < 0.1 |  |  |  |  | < 0.1
Nc1nc2cc(-c3ccc4nccc(NC5CCOCC5)c4c3)ccc2o1 [Compound 32] |  | < 10 | > 10 |  |  |  |  | < 10
CN1CCC(Oc2ncnc3ccc(-c4ccc5oc(N)nc5c4)cc23)CC1 [Compound 34] |  | < 1 | < 1 |  |  |  |  | < 0.1
Nc1nc2cc(-c3ccc4ncc(-c5cn[nH]c5)n4c3)ccc2o1 [Compound 38] |  | < 0.1 | < 0.1 |  |  |  |  | < 0.1
CN1CCN(c2cc(-c3cnc4ccc(-c5ccc6oc(N)nc6c5)cn34)ccn2)CC1 [Compound 43] |  | < 0.1 | < 0.1 |  |  |  |  | < 0.1
Nc1nc2cc(-c3ccc4ncc(-c5ccc(N6CCOCC6)nc5)n4c3)ccc2o1 [Compound 51] | < 1 | < 1 | < 1 |  |  |  |  | < 0.1
Nc1nc2cc(-c3ccc4ncc(N5CCOCC5)n4c3)ccc2o1 [Compound 53] | > 10 | > 10 | > 10 |  |  |  |  | < 10
Nc1nc2cc(-c3ccc4ncc(-c5cccnc5)n4n3)ccc2o1 [Compound 58] | < 0.1 | < 0.1 | < 0.1 |  |  |  |  | < 0.1
Nc1nc2ccc(-c3ccc4ncn(C5CCOCC5)c(=O)c4c3)cc2o1 [Compound 63] | > 10 | > 10 | > 10 |  |  |  |  | < 10
Cc1ncc(-c2ccc3ncc(C(=O)N4CCOCC4)n3c2)c2cn[nH]c12 [Compound 530] | > 10 | > 10 |  |  |  |  |  | < 0.1
O=C(c1cnc2ccc(-c3ccnc4[nH]ncc34)cn12)N1CCOCC1 [Compound 532] | > 10 | > 10 | > 10 |  |  |  |  | 
Cc1ncc(-c2ccc3ncc(C(=O)N4C5CCC4COC5)n3c2)c2cn[nH]c12 [Compound 538] | > 10 | > 10 |  |  |  |  |  | < 0.1
C[C@H]1CN(C2CN(c3cnc4ccc(-c5ccc6oc(N)nc6c5)nc4n3)C2)CCN1C [Compound 572] |  |  |  | > 10 | > 10 | < 0.1 |  | 
CC(C)N1CCN(C2CN(c3cnc4ccc(-c5ccc6oc(N)nc6c5)nc4n3)C2)CC1 [Compound 628] |  |  |  | > 10 | > 10 |  | > 10 | 

Second part, led by results:

IC50 (PI3K β (p110β/p85α)) [µM] | IC50 (PI3K γ (p110γ)) [µM] | IC50 (PI3K δ) [µM] | IC50 (PI3K β (p110β/p85α); Table 4 (PI3K α inhibitors)) [µM] | IC50 (PI3K γ (p110γ); Table 4 (PI3K α inhibitors)) [µM] | IC50 (PI3K α (p110α/p85α); Table 4 (PI3K α inhibitors)) [µM] | IC50 (PI3K δ; Table 4 (PI3K α inhibitors)) [µM] | Structure (SMILES) | IC50 (PI3K α (p110α/p85α)) [µM]
< 1 | < 0.1 | < 10 |  |  |  |  | CN1CCN(c2ncnc3ccc(-c4ccc5oc(N)nc5c4)cc23)CC1 [Compound 23] | < 0.1
 | < 1 | < 1 |  |  |  |  | Nc1nc2cc(-c3ccc4nccc(NCCN5CCOCC5)c4c3)ccc2o1 [Compound 33] | < 0.1
> 10 | > 10 | > 10 |  |  |  |  | Nc1nc2cc(-c3ccc4ncn(C5CCOCC5)c4c3)ccc2o1 [Compound 48] | < 10
< 1 | < 10 | > 10 |  |  |  |  | Nc1nc2cc(-c3ccc4ncc(N5CCOCC5)n4n3)ccc2o1 [Compound 57] | < 1
< 0.1 | < 0.1 | < 1 |  |  |  |  | Nc1nc2cc(-c3ccc4ncc(-c5cn[nH]c5)n4n3)ccc2o1 [Compound 59] | < 0.1
> 10 | > 10 | > 10 |  |  |  |  | Nc1nc2cc(-c3cnc4ncc(-c5ccncc5)n4c3)ccc2o1 [Compound 61] | > 10
 | > 10 | > 10 |  |  |  |  | CC(=O)N1CCC(n2cnc3ccc(-c4ccc5oc(N)nc5c4)cc3c2=O)CC1 [Compound 66] | < 10
 | > 10 | > 10 |  |  |  |  | CS(=O)(=O)N1CCC(n2cnc3ccc(-c4ccc5oc(N)nc5c4)cc3c2=O)CC1 [Compound 67] | < 1
< 10 | < 1 | < 10 |  |  |  |  | Nc1nc2cc(-c3cn4c(-c5ccncc5)cnc4cn3)ccc2o1 [Compound 68] | < 0.1
< 10 | < 1 | < 10 |  |  |  |  | Nc1nc2cc(-c3cn4c(-c5cn[nH]c5)cnc4cn3)ccc2o1 [Compound 69] | < 1
< 0.1 | < 0.1 | < 0.1 |  |  |  |  | Nc1nc2cc(-c3ccc4nccc(-c5ccncc5)c4c3)ccc2s1 [Compound 70] | < 0.1
< 10 | < 0.1 | < 1 |  |  |  |  | Nc1nc2cc(-c3ccc4ncc(-c5ccncc5)nc4c3)ccc2o1 [Compound 71] | < 0.1
< 10 | > 10 | > 10 |  |  |  |  | CCN1CCC(n2cnc3ccc(-c4ccc5oc(N)nc5c4)cc3c2=O)CC1 [Compound 73] | < 1
> 10 | > 10 | > 10 |  |  |  |  | CN1CCN(c2nc3cc(-c4ccc5oc(N)nc5c4)ccc3c(=O)n2C)CC1 [Compound 79] | < 10
> 10 | > 10 | > 10 |  |  |  |  | Cn1c(N2CCOCC2)nc2cc(-c3ccc4oc(N)nc4c3)ccc2c1=O [Compound 80] | < 1
< 1 | < 10 |  |  |  |  |  | CN1CCN([C@H]2CCN(c3cnc4ccc(-c5ccc6oc(N)nc6c5)cc4n3)C2)CC1 [Compound 381] | < 0.1

IC50 (PI3K β (p110β/p85α)) [µM] | IC50 (PI3K γ (p110γ)) [µM] | IC50 (PI3K δ) [µM] | IC50 (PI3K β (p110β/p85α); Table 4 (PI3K α inhibitors)) [µM] | IC50 (PI3K γ (p110γ); Table 4 (PI3K α inhibitors)) [µM] | IC50 (PI3K α (p110α/p85α); Table 4 (PI3K α inhibitors)) [µM] | IC50 (PI3K δ; Table 4 (PI3K α inhibitors)) [µM] | Structure (SMILES) | IC50 (PI3K α (p110α/p85α)) [µM]
< 10 | < 1 |  |  |  |  |  | Nc1nc2cc(-c3ccc4ncc(C(=O)N5CC(N6CC[C@@H](O)C6)C5)n4c3)ccc2o1 [Compound 470] | < 0.1
< 10 | < 10 | < 10 |  |  |  |  | O=C(c1cnc2ccc(-c3cnc4[nH]ncc4c3)cn12)N1CCOCC1 [Compound 492] | 
> 10 | > 10 | > 10 |  |  |  |  | O=C(c1cnc2ccc(-c3cnc4cc[nH]c4c3)cn12)N1CCOCC1 [Compound 534] | 
> 10 | > 10 | > 10 |  |  |  |  | Cc1ncc(-c2ccc3ncc(C(=O)N4CCOCC4)n3c2)c2cc[nH]c12 [Compound 536] | 
 |  |  | > 10 | < 1 | < 0.1 |  | CS(=O)(=O)N1CCN(C2CN(c3cnc4ccc(-c5ccc6oc(N)nc6c5)nc4n3)C2)CC1 [Compound 559] | 
 |  |  |  | < 0.1 | < 0.1 | > 10 | Nc1nc2cc(-c3ccc4ncc(C5=CCOCC5)nc4n3)ccc2o1 [Compound 562] | 
 |  |  |  | < 0.1 | < 0.1 | > 10 | C[C@H]1COCCN1c1cnc2ccc(-c3ccc4oc(N)nc4c3)nc2n1 [Compound 566] | 
 |  |  | < 0.1 | < 1 | < 0.1 |  | CN1CCN(c2cnc3ccc(-c4ccc5oc(N)nc5c4)nc3c2)CC1 [Compound 575] | 
 |  |  | > 10 | < 1 | < 1 |  | CCN(CC)c1cnc2ccc(-c3ccc4oc(N)nc4c3)nc2n1 [Compound 577] | 
 |  |  | < 0.1 | < 1 | < 0.1 |  | C[C@@H]1CN(c2cnc3ccc(-c4ccc5oc(N)nc5c4)nc3n2)CCN1 [Compound 578] | 
 |  |  | < 1 | < 1 | < 0.1 |  | CC(C)N1CCN(c2cnc3ccc(-c4ccc5oc(N)nc5c4)nc3n2)CC1 [Compound 583] | 
 |  |  |  | < 0.1 | < 0.1 | > 10 | CCOC(=O)N1CCN(c2cnc3ccc(-c4ccc5oc(N)nc5c4)nc3c2)CC1 [Compound 587] | 
 |  |  |  | < 0.1 | < 0.1 | > 10 | Nc1nc2cc(-c3ccc4ncc(N5CCC(O)CC5)nc4n3)ccc2o1 [Compound 596] | 
 |  |  |  | < 1 | < 0.1 | < 1 | C[C@@H]1CN(C2CN(c3cnc4ccc(-c5ccc6oc(N)nc6c5)nc4c3)C2)CCN1 [Compound 607] | 
 |  |  |  | < 0.1 | < 0.1 | < 1 | C[C@@H]1COCCN1C1CN(c2cnc3ccc(-c4ccc5oc(N)nc5c4)nc3c2)C1 [Compound 617] | 
